Source: US20100056524A1, “Compound” (priority 2008, published 2010)
Where a name gives a salt, the structure may show the parent alone. Read-outs that look alike come from different tables or passages of the source.

What was measured:
Assay type in all cases: biochemical
[1] = molecular target: T1, PKA (Homo sapiens, UniProt P17612); experiment: PKA protein kinase assay; conditions: for remaining activity at 10 µM: 10 μM compound; for residual kinase activity PKA: 1 μm compound; for remaining activity at 1 µM: 1 μM compound
T1 construct: All protein kinases were of human origin and encoded full length proteins, unless indicated otherwise; made in house
Excerpt: (§1) All protein kinases were of human origin and encoded full length proteins, unless indicated otherwise. They were either expressed as glutathione S-transferase (GST) fusion proteins in Escherichia Coli or as hexahistidine (His6)-tagged proteins in insect Sf21 cells. GST fusion proteins were purified by affinity chromatography on glutathione-Sepharose, and His6-tagged proteins on nickel/nitriloacetate-agarose. The procedures for expressing some of the protein kinases used herein have been detailed previously.^8,9 The following sections outline the DNA vectors synthesised and the procedures used to express and purifying protein kinases that have not been reported previously.
(§2) All assays (25.5 μl) were carried out at room temperature (21° C.) and were linear with respect to time and enzyme concentration under the conditions used. Assays were performed for 30 min using Multidrop Micro reagent dispensers (Thermo Electron Corporation, Waltham, Mass. 02454, USA) in a 96-well format. The concentration of magnesium acetate in the assays was 10 mM and the [γ-33P] ATP (800 cpm/pmol) was used at 5, 20 or 50 μM as indicated, in order to be at or below the Km for ATP for each enzyme. Protein kinases assayed at 5 μM ATP were: —ERK1, ERK8, PKBα, MARK3, Aurora C. Protein kinases assayed at 20 μM ATP were: —JNK1, PDK1, CHK1, CHK2, CDK2 and Aurora B. Protein kinases assayed at 50 μM ATP were: —MNK2, IKKepsilon and TBK1.
(§3) The assays were initiated with MgATP, stopped by addition of 5 μl of 0.5 M orthophosphoric acid and spotted on to P81 filterplates using a unifilter harvester (PerkinElmer, Boston, Mass. 02118, USA). The IC50 values of inhibitors were determined after carrying out assays at 10 different concentrations of each compound.
(§4) Unless stated otherwise, enzymes were diluted in 50 mM Tris/HCl pH 7.5, 0.1 mM EGTA, 1 mg/ml BSA, 0.1% (v/v) 2-mercaptoethanol and assayed in 50 mM Tris/HCl pH 7.5, 0.1 mM EGTA, 0.1% (v/v) 2-mercaptoethanol.

[2] = molecular target: T2, PLK1 (Homo sapiens, UniProt P53350); experiment: PLK1 protein kinase assay; conditions: for remaining activity at 10 µM: 10 μM compound; for residual kinase activity PLK1: 1 μm compound; for remaining activity at 1 µM: 1 μM compound
T2 construct: All protein kinases were of human origin and encoded full length proteins, unless indicated otherwise; made in house
T2 sequence (P53350 whole entry): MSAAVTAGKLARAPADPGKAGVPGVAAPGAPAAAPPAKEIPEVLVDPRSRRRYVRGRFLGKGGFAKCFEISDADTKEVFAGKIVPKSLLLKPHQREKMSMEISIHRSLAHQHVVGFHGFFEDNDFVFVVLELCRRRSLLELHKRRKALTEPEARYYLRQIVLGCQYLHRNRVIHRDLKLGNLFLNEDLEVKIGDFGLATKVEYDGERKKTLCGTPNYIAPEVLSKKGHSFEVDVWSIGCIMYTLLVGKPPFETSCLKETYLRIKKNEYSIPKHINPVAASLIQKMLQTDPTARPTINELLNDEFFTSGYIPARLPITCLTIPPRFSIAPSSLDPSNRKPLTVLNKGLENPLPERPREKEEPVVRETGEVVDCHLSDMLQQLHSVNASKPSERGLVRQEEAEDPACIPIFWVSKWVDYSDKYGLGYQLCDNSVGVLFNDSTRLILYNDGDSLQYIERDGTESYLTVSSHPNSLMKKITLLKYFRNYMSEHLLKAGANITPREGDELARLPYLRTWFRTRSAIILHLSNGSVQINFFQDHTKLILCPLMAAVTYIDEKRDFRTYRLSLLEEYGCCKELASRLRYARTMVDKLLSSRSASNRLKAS
Excerpt: as §1, §2, §3, §4

[3] = molecular target: T3, BRSK2 (Homo sapiens, UniProt Q8IWQ3); experiment: BRSK2 protein kinase assay; conditions: for remaining activity at 10 µM: 10 μM compound; for residual kinase activity BRSK2: 1 μm compound; for remaining activity at 1 µM: 1 μM compound
T3 construct: All protein kinases were of human origin and encoded full length proteins, unless indicated otherwise; made in house
T3 sequence (Q8IWQ3 1-736): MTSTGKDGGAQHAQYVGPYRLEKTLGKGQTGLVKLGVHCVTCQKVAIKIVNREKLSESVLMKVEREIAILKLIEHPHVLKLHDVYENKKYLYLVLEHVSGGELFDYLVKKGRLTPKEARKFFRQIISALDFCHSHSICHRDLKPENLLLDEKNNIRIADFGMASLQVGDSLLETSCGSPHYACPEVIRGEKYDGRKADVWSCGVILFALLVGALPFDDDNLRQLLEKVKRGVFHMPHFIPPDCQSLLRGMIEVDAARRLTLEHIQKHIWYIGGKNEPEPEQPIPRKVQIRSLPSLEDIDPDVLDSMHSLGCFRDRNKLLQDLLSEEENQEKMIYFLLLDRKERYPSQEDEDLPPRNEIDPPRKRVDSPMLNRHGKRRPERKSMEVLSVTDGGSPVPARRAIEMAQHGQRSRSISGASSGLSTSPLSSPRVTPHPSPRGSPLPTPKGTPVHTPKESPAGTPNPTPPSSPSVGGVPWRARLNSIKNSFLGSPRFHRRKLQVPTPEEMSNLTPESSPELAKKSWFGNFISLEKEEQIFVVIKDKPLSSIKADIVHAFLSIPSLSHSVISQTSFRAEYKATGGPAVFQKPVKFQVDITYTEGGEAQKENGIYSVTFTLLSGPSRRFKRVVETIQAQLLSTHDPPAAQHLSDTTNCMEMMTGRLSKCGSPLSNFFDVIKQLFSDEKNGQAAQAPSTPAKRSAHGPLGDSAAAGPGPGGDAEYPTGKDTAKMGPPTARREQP
Excerpt: as §1, §2, §3, §4

[4] = molecular target: T4, DYRK3 (Homo sapiens, UniProt O43781); experiment: DYRK3 protein kinase assay; conditions: for remaining activity at 10 µM: 10 μM compound; for residual kinase activity DYRK3: 1 μm compound; for remaining activity at 1 µM: 1 μM compound
T4 construct: All protein kinases were of human origin and encoded full length proteins, unless indicated otherwise; made in house
T4 sequence (O43781 1-588): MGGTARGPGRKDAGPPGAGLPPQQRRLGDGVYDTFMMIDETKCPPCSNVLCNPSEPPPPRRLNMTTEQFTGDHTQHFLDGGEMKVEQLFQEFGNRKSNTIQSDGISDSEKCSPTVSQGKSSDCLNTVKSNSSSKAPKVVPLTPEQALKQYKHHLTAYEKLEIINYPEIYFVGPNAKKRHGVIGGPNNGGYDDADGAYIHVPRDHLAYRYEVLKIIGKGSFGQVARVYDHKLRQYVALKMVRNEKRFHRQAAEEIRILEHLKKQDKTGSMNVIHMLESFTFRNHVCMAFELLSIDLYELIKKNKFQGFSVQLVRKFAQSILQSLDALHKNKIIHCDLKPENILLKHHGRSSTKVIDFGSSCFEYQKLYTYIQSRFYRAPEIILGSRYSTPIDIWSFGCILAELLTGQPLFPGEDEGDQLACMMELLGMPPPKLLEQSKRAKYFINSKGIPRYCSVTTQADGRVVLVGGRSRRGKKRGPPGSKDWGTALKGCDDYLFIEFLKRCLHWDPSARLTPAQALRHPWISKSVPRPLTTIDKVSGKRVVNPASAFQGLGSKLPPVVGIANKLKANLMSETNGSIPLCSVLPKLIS
Excerpt: as §1, §2, §3, §4

[5] = read-out: residual kinase activity PKA
[6] = read-out: residual kinase activity PLK1
[7] = read-out: residual kinase activity BRSK2
[8] = read-out: residual kinase activity DYRK3
[9] = PKA, read-out: residual kinase activity
[10] = PLK1, read-out: residual kinase activity
[11] = BRSK2, read-out: residual kinase activity
[12] = DYRK3, read-out: residual kinase activity

Compound | remaining activity at 10 µM [1, 5] [%] | residual kinase activity PKA [1] [%] | remaining activity at 10 µM [2, 6] [%] | residual kinase activity PLK1 [2] [%] | remaining activity at 10 µM [3, 7] [%] | residual kinase activity BRSK2 [3] [%] | remaining activity at 10 µM [4, 8] [%] | residual kinase activity DYRK3 [4] [%] | remaining activity at 1 µM [1, 9] [%] | remaining activity at 10 µM [1, 9] [%] | remaining activity at 1 µM [2, 10] [%] | remaining activity at 10 µM [2, 10] [%] | remaining activity at 1 µM [3, 11] [%] | remaining activity at 10 µM [3, 11] [%] | remaining activity at 1 µM [4, 12] [%] | remaining activity at 10 µM [4, 12] [%]
O=C(NCCCNc1nc(Nc2cccc(F)c2)ncc1Br)C1CCC1 [Compound A, cyclobutanecarboxylic acid {3-[5-bromo-2-(3-fluoro-phenylamino)-pyrimidin-4-ylamino]-propyl}-amide, reference compound] | 22 | 75 | 45 | 82 | 6 | 23 | 7 | 33 | – | – | – | – | – | – | – | –
O=C(NCCCNc1nc(Nc2cccc(F)c2)ncc1C1CC1)C1CCC1 [Example 23, Cyclobutanecarboxylic acid {3-[5-cyclopropyl-2-(3-fluoro-phenylamino)-pyrimidin-4-ylamino]-propyl}-amide] | 73 | 80 | 62 | 90 | 26 | 64 | 36 | 78 | 80 | 73 | 90 | 62 | 64 | 26 | 78 | 36
O=C(NCCCNc1nc(Nc2cccc(N3CCCC3=O)c2)ncc1C1CC1)c1cccs1 [Example 47, Thiophene-2-carboxylic acid (3-{5-cyclopropyl-2-[3-(2-oxo-pyrrolidin-1-yl)-phenylamino]-pyrimidin-4-ylamino}-propyl)-amide. Hydrochloride salt] | – | – | – | – | – | – | – | – | 96 | 80 | 88 | 75 | 91 | 36 | 73 | 33
O=C(NCCCNc1nc(Nc2cccnc2)ncc1C1CC1)c1cccs1 [Example 50, Thiophene-2-carboxylic acid {3-[5-cyclopropyl-2-(pyridin-3-ylamino)-pyrimidin-4-ylamino]-propyl}-amide] | – | – | – | – | – | – | – | – | 91 | 80 | 101 | 66 | 87 | 42 | 59 | 22
